Experimental data from BindingDB's records for doi:10.1016/S0960-894X(01)80688-0 (1994).

Columns and labels:
[1] = Inhibitory activity was determined against bovine liver beta galactosidase
[2] = Inhibitory activity was determined against almonds Beta-glucosidase
[3] = Inhibitory activity was determined against Escherichia coli beta galactosidase

IC50 [1] [µM]	IC50 [2] [µM]	IC50 [3] [µM]	Structure (SMILES)
153	> 300	> 300	OCC1(O)C(O)C(O)C2N=C(Nc3ccccc3)OC21 (stereo unspecified) [6-Hydroxymethyl-2-phenylamino-4,5,6,6a-tetrahydro-3aH-cyclopentaoxazole-4,5,6-triol]
3	> 300	> 300	OCC1C(O)C(O)C2OC(Nc3ccccc3)=NC12 (stereo unspecified) [4-Hydroxymethyl-2-phenylamino-4,5,6,6a-tetrahydro-3aH-cyclopentaoxazole-5,6-diol]
